Laboratory results: US12454529B2, “Piperazine cyclic ureas” (SIRONAX LTD., priority 2020, dated 2025)
Like-named read-outs stand apart in the source and are kept apart here.

Test system: HT-29 cells
Test: HT-29 cell necrosis/necroptosis inhibition (TNF-α + SMAC mimetic + zVAD-FMK; CellTiter-Glo cell viability)
Type: cell-based
Details: Homo sapiens, HT-29 cells, TNF-α 10 ng/ml + SMAC mimetic 6 μM + zVAD-FMK 10 μM, 20 hours, geometric mean, 10 points in duplicate
Method in brief: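 HT-29 cells (~5,000/well) were switched to FBS-free McCOY's 5A holding TNF-α (10 ng/ml), SMAC mimetic (6 μM) and zVAD-FMK (10 μM), then dosed with a 10-point 1:3 series for 20 h at 37 °C. CellTiter-Glo luminescence gave viability; geometric mean EC50 from duplicates.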

[1] = read-out: EC50 (Cell activity; Necrosis/Necroptosis Inhibitory Activity, Compounds 1-142)

## Cc1nc(C(F)F)nn1-c1nc(N2CCN(C(=O)N3N=CC[C@H]3c3cc(F)cc(C#N)c3)CC2)ncc1F [Compound 245, (S)-3-(1-(4-(4-(3-(difluoromethyl)-5-methyl-1H-1,2,4-triazol-1-yl)-5-fluoropyrimidinyl)piperazine-1-carbonyl)-4,5-dihydro-1H-pyrazol-5-yl)-5-fluorobenzonitrile]
read-out: EC50 (Cell activity; Necrosis/Necroptosis Inhibitory Activity, Compounds 143-323)
  EC50: 0.1 to 100 nM

## Cc1nc(C)c(-c2nc(N3CCN(C(=O)N4N=CC[C@H]4c4cc(F)cc(F)c4)CC3)ncc2F)s1 [Compound 55, (S)-(5-(3,5-difluorophenyl)-4,5-dihydro-1H-pyrazol-1-yl)(4-(4-(2,4-dimethylthiazol-5-yl)-5-fluoropyrimidin-2-yl)piperazin-1-yl)methanone]
[1]
  EC50: 0.1 to 100 nM

## O=C(N1CCN(c2ncc(F)c(-c3n[nH]nc3I)n2)CC1)N1N=CC[C@H]1c1cc(F)cc(F)c1 [Compound 20, (S)-(5-(3,5-difluorophenyl)-4,5-dihydro-1H-pyrazol-1-yl)(4-(5-fluoro-4-(5-iodo-1H-1,2,3-triazol-4-yl)pyrimidin-2-yl)piperazin-1-yl)methanone]
[1]
  EC50: 0.1 to 100 nM
